Measured values from patent US12139520B2 (priority 2020, dated 2024).
Numbered stars: 1 amine (or outer) side, 2 acyl side, 3 side chain; on linkers, the order of the positions; unused ones are H or OH. Bridge positions count the residues as written; N and C are the ends. Square brackets hold non-standard residues; d marks the D form. Peptide text beside a SMILES is read from it. * marks the point of attachment. C20 diacid = O=C(O)CCCCCCCCCCCCCCCCCCC(=O)*; γGlu = O=C(O)[C@H](CCC(=O)[*:2])N[*:1]; Hyp = O=C(O)[C@@H]1C[C@@H](O)CN1

Biological target: T1, hAMY3 receptor (Homo sapiens, UniProt O60896+P30988)
T1 sequence (P30988 25-474): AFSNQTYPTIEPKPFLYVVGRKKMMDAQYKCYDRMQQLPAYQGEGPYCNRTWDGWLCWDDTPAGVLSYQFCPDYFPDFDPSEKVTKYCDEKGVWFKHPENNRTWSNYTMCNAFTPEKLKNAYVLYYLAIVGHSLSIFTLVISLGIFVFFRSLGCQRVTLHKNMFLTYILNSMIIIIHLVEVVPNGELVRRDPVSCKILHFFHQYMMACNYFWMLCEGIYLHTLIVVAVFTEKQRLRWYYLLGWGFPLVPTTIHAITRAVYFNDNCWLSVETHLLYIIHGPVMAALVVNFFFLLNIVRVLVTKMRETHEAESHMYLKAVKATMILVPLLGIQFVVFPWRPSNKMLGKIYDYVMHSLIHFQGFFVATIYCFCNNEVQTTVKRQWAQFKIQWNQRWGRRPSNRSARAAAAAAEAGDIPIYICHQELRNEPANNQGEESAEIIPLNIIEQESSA
T1 sequence (O60896 24-148 partner): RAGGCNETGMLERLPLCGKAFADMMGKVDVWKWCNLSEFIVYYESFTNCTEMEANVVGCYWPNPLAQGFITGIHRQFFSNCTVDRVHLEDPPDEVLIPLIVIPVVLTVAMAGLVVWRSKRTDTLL
Assay: cAMP assay for in vitro receptor activation, hAMY3-R
Type: cell-based
Settings: cAMP assay, hAMY3 receptor; read-out: hAMY3R EC50
Procedure, shortened: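 Monoclonal cell line stably overexpressing human AMY3 receptor, 2000 cells/well in DPBS with 0.05% casein and 0.5 mM IBMX. Stimulated 30 min at room temperature with graded compound doses, human amylin as positive control. cAMP accumulation read by TR-FRET after one hour.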

| EC50 | Compound |
| --- | --- |
| 0.012 nM | CC[C@H](C)[C@H](NC(=O)[C@H](CCCCN)NC(=O)[C@@H](NC(=O)[C@H](CCCNC(=N)N)NC(=O)[C@@H]1CCCN1C(=O)[C@H](C)NC(=O)[C@@H](NC(=O)[C@H](CC(N)=O)NC(=O)[C@H](CC(=O)O)NC(=O)[C@H](CCCCN)NC(=O)[C@H](CC(=O)O)NC(=O)[C@H](CCCCN)NC(=O)[C@H](CC(=O)O)NC(=O)[C@@H](NC(=O)[C@H](Cc1ccccc1)NC(=O)[C@H](CCC(N)=O)NC(=O)[C@H](Cc1ccc(O)cc1)NC(=O)[C@H](CC(C)C)NC(=O)[C@H](Cc1ccccc1)NC(=O)[C@H](Cc1c[nH]cn1)NC(=O)[C@H](C)NC(=O)[C@H](CC(C)C)NC(=O)[C@H](CCCNC(=N)N)NC(=O)[C@H](CCC(N)=O)NC(=O)[C@@H](NC(=O)[C@@H](NC(=O)[C@@H]1CSSC[C@H](NC(=O)CN)C(=O)N[C@@H](CCCNC(=N)N)C(=O)N[C@@H](Cc2ccccc2)C(=O)NCC(=O)N[C@@H]([C@@H](C)O)C(=O)N1)[C@@H](C)O)C(C)C)[C@@H](C)O)C(C)C)[C@@H](C)O)C(=O)NCC(=O)N1CCC[C@H]1C(=O)N[C@@H](CCC(N)=O)C(=O)NCC(=O)N[C@@H](Cc1ccc(O)cc1)C(N)=O [compound 365] (H-GCRFGTCTVQRLAHFLYQFTDKDKDNVAPRTKIGPQGY-NH2; disulfide 2-7) |
| 0.011 nM | CC[C@H](C)[C@H](NC(=O)[C@H](CCC(N)=O)NC(=O)[C@H](Cc1c[nH]cn1)NC(=O)[C@H](C)NC(=O)[C@H](CC(C)C)NC(=O)[C@H](CCCNC(=N)N)NC(=O)[C@H](CCC(N)=O)NC(=O)[C@@H](NC(=O)[C@@H](NC(=O)[C@@H]1CSSC[C@H](NC(=O)[C@H](CCCCN)NC(=O)CC[C@H](NC(=O)CCCCCCCCCCCCCCCCCCC(=O)O)C(=O)O)C(=O)N[C@@H](CC(N)=O)C(=O)N[C@@H]([C@@H](C)O)C(=O)N[C@@H](C)C(=O)N[C@@H]([C@@H](C)O)C(=O)N1)[C@@H](C)O)C(C)C)C(=O)N[C@@H](Cc1ccc(O)cc1)C(=O)N[C@@H](CCC(N)=O)C(=O)N[C@@H](Cc1ccc(O)cc1)C(=O)N[C@H](C(=O)N[C@@H](CC(=O)O)C(=O)N[C@@H](CCCCN)C(=O)N[C@@H](CC(=O)O)C(=O)N[C@@H](CCCCN)C(=O)N[C@@H](CC(=O)O)C(=O)N[C@@H](CC(N)=O)C(=O)N[C@H](C(=O)N[C@@H](C)C(=O)N1CCC[C@H]1C(=O)N1CCC[C@H]1C(=O)N[C@H](C(=O)N[C@@H](CC(N)=O)C(=O)N[C@H](C(=O)NCC(=O)N[C@@H](CO)C(=O)N[C@@H](CC(N)=O)C(=O)NCC(=O)N1C[C@H](O)C[C@H]1C(N)=O)C(C)C)[C@@H](C)O)C(C)C)[C@@H](C)O [compound 48] ({C20 diacid-γGlu}-KCNTATCTVQRLAHQIYQYTDKDKDNVAPPTNVGSNG[Hyp]-NH2; disulfide 2-7) |
| 0.036 nM | CC[C@H](C)[C@H](NC(=O)[C@H](CC(N)=O)NC(=O)[C@@H](NC(=O)[C@H](CCCNC(=N)N)NC(=O)[C@@H]1CCCN1C(=O)[C@H](C)NC(=O)[C@@H](NC(=O)[C@H](CC(N)=O)NC(=O)[C@H](CC(=O)O)NC(=O)[C@H](CCCCN)NC(=O)[C@H](CC(=O)O)NC(=O)[C@H](CCCCN)NC(=O)[C@H](CC(=O)O)NC(=O)[C@@H](NC(=O)[C@H](Cc1ccccc1)NC(=O)[C@H](CCC(N)=O)NC(=O)[C@H](Cc1ccc(O)cc1)NC(=O)[C@@H](NC(=O)[C@H](CCC(N)=O)NC(=O)[C@H](Cc1c[nH]cn1)NC(=O)[C@H](C)NC(=O)[C@H](CC(C)C)NC(=O)[C@H](CCCNC(=N)N)NC(=O)[C@H](CCC(N)=O)NC(=O)[C@@H](NC(=O)[C@@H](NC(=O)[C@@H]1CSSC[C@H](NC(=O)CN)C(=O)N[C@@H](CCCNC(=N)N)C(=O)N[C@@H]([C@@H](C)O)C(=O)NCC(=O)N[C@@H]([C@@H](C)O)C(=O)N1)[C@@H](C)O)C(C)C)[C@@H](C)CC)[C@@H](C)O)C(C)C)[C@@H](C)O)C(=O)NCC(=O)N1CCC[C@H]1C(=O)N[C@@H](CC(N)=O)C(=O)NCC(=O)N[C@@H](Cc1ccc(O)cc1)C(N)=O [compound 142] (H-GCRTGTCTVQRLAHQIYQFTDKDKDNVAPRTNIGPNGY-NH2; disulfide 2-7; N-terminus assumed) |
| 0.008 nM | CC[C@H](C)[C@H](NC(=O)[C@H](CCC(N)=O)NC(=O)[C@H](Cc1c[nH]cn1)NC(=O)[C@H](C)NC(=O)[C@H](CC(C)C)NC(=O)[C@H](CCCNC(=N)N)NC(=O)[C@H](CCC(N)=O)NC(=O)[C@@H](NC(=O)[C@@H](NC(=O)[C@@H]1CSSC[C@H](NC(=O)[C@@H](N)CCCCN)C(=O)N[C@@H](CC(N)=O)C(=O)N[C@@H](Cc2ccccc2)C(=O)N[C@@H](C)C(=O)N[C@@H]([C@@H](C)O)C(=O)N1)[C@@H](C)O)C(C)C)C(=O)N[C@@H](Cc1ccc(O)cc1)C(=O)N[C@@H](CCC(N)=O)C(=O)N[C@@H](Cc1ccccc1)C(=O)N[C@H](C(=O)N[C@@H](CC(=O)O)C(=O)N[C@@H](CCCCN)C(=O)N[C@@H](CC(=O)O)C(=O)N[C@@H](CCCCN)C(=O)N[C@@H](CC(=O)O)C(=O)N[C@@H](CC(N)=O)C(=O)N[C@H](C(=O)N[C@@H](C)C(=O)N1CCC[C@H]1C(=O)N1CCC[C@H]1C(=O)N[C@H](C(=O)N[C@@H](CCC(=O)O)C(=O)N[C@H](C(=O)NCC(=O)N[C@@H](CO)C(=O)N[C@@H](CC(N)=O)C(=O)NCC(=O)N1CCC[C@H]1C(N)=O)C(C)C)[C@@H](C)O)C(C)C)[C@@H](C)O [compound 18] (H-KCNFATCTVQRLAHQIYQFTDKDKDNVAPPTEVGSNGP-NH2; disulfide 2-7) |
| 0.024 nM | CC(C)C[C@H](NC(=O)[C@H](CCCNC(=N)N)NC(=O)[C@H](CCC(N)=O)NC(=O)[C@@H](NC(=O)[C@@H](NC(=O)[C@@H]1CSSC[C@H](NC(=O)CN)C(=O)N[C@@H](CCCNC(=N)N)C(=O)N[C@@H](Cc2ccccc2)C(=O)N[C@@H](C)C(=O)N[C@@H]([C@@H](C)O)C(=O)N1)[C@@H](C)O)C(C)C)C(=O)N[C@@H](C)C(=O)N[C@@H](Cc1c[nH]cn1)C(=O)N[C@@H](Cc1ccccc1)C(=O)N[C@@H](CC(C)C)C(=O)N[C@@H](Cc1ccc(O)cc1)C(=O)N[C@@H](CCC(N)=O)C(=O)N[C@@H](Cc1ccccc1)C(=O)N[C@H](C(=O)N[C@@H](CC(=O)O)C(=O)N[C@@H](CCCCN)C(=O)N[C@@H](CC(=O)O)C(=O)N[C@@H](CCCCN)C(=O)N[C@@H](CC(=O)O)C(=O)N[C@@H](CC(N)=O)C(=O)N[C@H](C(=O)N[C@@H](C)C(=O)N1CCC[C@H]1C(=O)N[C@@H](CCCNC(=N)N)C(=O)N[C@H](C(=O)N[C@@H](CCCCN)C(=O)N[C@H](C(=O)NCC(=O)N1CCC[C@H]1C(=O)N[C@@H](CCC(N)=O)C(=O)NCC(=O)N[C@@H](Cc1ccc(O)cc1)C(N)=O)C(C)C)[C@@H](C)O)C(C)C)[C@@H](C)O [compound 377] (H-GCRFATCTVQRLAHFLYQFTDKDKDNVAPRTKVGPQGY-NH2; disulfide 2-7; N-terminus assumed) |
| 0.186 nM | CC(C)C[C@H](NC(=O)[C@H](CCCNC(=N)N)NC(=O)[C@H](CCC(N)=O)NC(=O)[C@@H](NC(=O)[C@@H](NC(=O)[C@@H]1CSSC[C@H](NC(=O)CNC(=O)CC[C@H](NC(=O)CCCCCCCCCCCCCCCCCCC(=O)O)C(=O)O)C(=O)N[C@@H](CCCNC(=N)N)C(=O)N[C@@H](Cc2ccccc2)C(=O)NCC(=O)N[C@@H]([C@@H](C)O)C(=O)N1)[C@@H](C)O)C(C)C)C(=O)N[C@@H](C)C(=O)N[C@@H](Cc1c[nH]cn1)C(=O)N[C@@H](Cc1ccccc1)C(=O)N[C@@H](CC(C)C)C(=O)N[C@@H](Cc1ccc(O)cc1)C(=O)N[C@@H](CCC(N)=O)C(=O)N[C@@H](Cc1ccccc1)C(=O)N[C@H](C(=O)N[C@@H](CC(=O)O)C(=O)N[C@@H](CCCCN)C(=O)N[C@@H](CC(=O)O)C(=O)N[C@@H](CCCCN)C(=O)N[C@@H](CC(=O)O)C(=O)N[C@@H](CC(N)=O)C(=O)N[C@H](C(=O)N[C@@H](C)C(=O)N1CCC[C@H]1C(=O)N[C@@H](CCCNC(=N)N)C(=O)N[C@H](C(=O)N[C@@H](CCCCN)C(=O)N[C@H](C(=O)NCC(=O)N[C@@H](CO)C(=O)N[C@@H](CC(N)=O)C(=O)NCC(=O)N[C@@H](Cc1ccc(O)cc1)C(N)=O)C(C)C)[C@@H](C)O)C(C)C)[C@@H](C)O [compound 223] ({C20 diacid-γGlu}-GCRFGTCTVQRLAHFLYQFTDKDKDNVAPRTKVGSNGY-NH2; disulfide 2-7) |
